Data published in patent US9751854B2 (Millennium Pharmaceuticals, Inc., priority 2014, dated 2017).

target: human VPS34 (Homo sapiens (Human), UniProt Q8NEB9); assay: Human VPS34 enzyme assay (Adapta TR-FRET ADP detection); assay type: biochemical; settings: not given
Sequence (Q8NEB9 whole entry): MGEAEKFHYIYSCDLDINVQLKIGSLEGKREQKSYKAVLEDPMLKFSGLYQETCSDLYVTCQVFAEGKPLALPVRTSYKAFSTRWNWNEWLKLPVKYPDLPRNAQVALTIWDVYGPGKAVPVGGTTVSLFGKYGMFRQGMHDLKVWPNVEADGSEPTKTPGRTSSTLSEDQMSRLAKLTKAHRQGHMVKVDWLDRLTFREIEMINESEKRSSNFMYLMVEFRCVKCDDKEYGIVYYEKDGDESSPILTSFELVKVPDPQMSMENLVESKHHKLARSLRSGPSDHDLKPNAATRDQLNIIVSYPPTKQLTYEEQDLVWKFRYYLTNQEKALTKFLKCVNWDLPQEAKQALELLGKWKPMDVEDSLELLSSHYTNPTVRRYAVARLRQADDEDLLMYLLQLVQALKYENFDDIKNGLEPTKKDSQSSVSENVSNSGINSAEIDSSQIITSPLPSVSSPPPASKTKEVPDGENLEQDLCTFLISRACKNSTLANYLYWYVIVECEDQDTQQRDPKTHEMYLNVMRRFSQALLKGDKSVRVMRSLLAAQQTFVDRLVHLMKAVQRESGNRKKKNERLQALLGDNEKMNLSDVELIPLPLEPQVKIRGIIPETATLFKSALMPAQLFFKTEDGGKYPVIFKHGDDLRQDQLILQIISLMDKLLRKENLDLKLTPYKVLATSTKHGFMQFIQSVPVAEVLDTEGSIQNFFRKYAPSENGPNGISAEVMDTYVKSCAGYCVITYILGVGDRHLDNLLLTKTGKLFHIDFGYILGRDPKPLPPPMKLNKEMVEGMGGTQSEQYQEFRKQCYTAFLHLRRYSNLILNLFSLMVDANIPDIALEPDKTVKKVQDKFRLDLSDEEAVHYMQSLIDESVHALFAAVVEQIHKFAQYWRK

In the case of CC(=O)Nc1cc(-c2cnc(N)c(S(=O)(=O)CC3CC3)c2)ccn1 [Compound I-208], the IC50 is reported as 10 to 50 nM.

For CC(=O)Nc1cc(-c2cnc(N)c(S(=O)(=O)CC3CC3)c2)ccn1 [Compound I-208], the “Percent Inhibition” value was greater than 99%.

same assay, conditions: IC50 range class

COc1ccc(S(=O)(=O)Nc2cc(-c3ccnc(NC(C)=O)c3)cnc2C)cc1 [Compound I-165, N-(5-{[(4-methoxyphenyl)sulfonyl]amino}-6-methyl-3,4′-bipyridin-2′-yl)acetamide] and CC(=O)Nc1cc(-c2cnc(C)c(NS(=O)(=O)c3ccc(F)cc3)c2)ccn1 [Compound I-185, N-(5-{[(4-fluorophenyl)sulfonyl]amino}-6-methyl-3,4′-bipyridin-2′-yl)acetamide] cannot be ordered by IC50: less than 10 nM for the first, less than 10 nM for the second.

CN(C)S(=O)(=O)c1cc(-c2ccnc(Nc3ncco3)c2)cnc1N [Compound I-166, 6-amino-N,N-dimethyl-2′-(1,3-oxazol-2-ylamino)-3,4′-bipyridine-5-sulfonamide] and COC(=O)Nc1cc(-c2cnc(N)c(S(=O)(=O)N(C)C)c2)ccn1 [Compound I-171, Methyl [6-amino-5-(dimethylsulfamoyl)-3,4′-bipyridin-2′-yl]carbamate] cannot be ordered by IC50: less than 10 nM for the first, less than 10 nM for the second.

First: CC(=O)Nc1cc(-c2cnc(C)c(NS(C)(=O)=O)c2)ccn1 [Compound I-167, N-{6-methyl-5-[(methylsulfonyl)amino]-3,4′-bipyridin-2′-yl}acetamide]
Second: CC(=O)Nc1cc(-c2cnc(C)c(NC(C)=O)c2)ccn1 [Compound I-193, N,N′-(6-methyl-3,4′-bipyridine-2′,5-diyl)diacetamide]
The IC50 of the first is lower: 10 to 50 nM for the first, 50 to 100 nM for the second.

CC(=O)Nc1cc(-c2cnc(C)c(NS(=O)(=O)c3cccc(C(F)(F)F)c3)c2)ccn1 [Compound I-168, N-[6-methyl-5-({[3-(trifluoromethyl)phenyl]sulfonyl}amino)-3,4′-bipyridin-2′-yl]acetamide] and CC(=O)Nc1cc(-c2cnc(C)c(NS(=O)(=O)c3ccc(C(F)(F)F)cc3Cl)c2)ccn1 [Compound I-196, N-[5-({[2-chloro-4-(trifluoromethyl)phenyl]sulfonyl}amino)-6-methyl-3,4′-bipyridin-2′-yl]acetamide] cannot be ordered by IC50: less than 10 nM for the first, less than 10 nM for the second.

Compared with CC(=O)Nc1cc(-c2cnc(N)c(C(=O)NC3CC3)c2)ccn1 [Compound I-169, 2′-acetamido-6-amino-N-cyclopropyl-3,4′-bipyridine-5-carboxamide], CC(=O)Nc1cc(-c2cnc(N)c(C(=O)NC34CC(C3)C4)c2)ccn1 [Compound I-187, 2′-acetamido-6-amino-N-(bicyclo[1.1.1]pent-1-yl)-3,4′-bipyridine-5-carboxamide] is lower in IC50: 10 to 50 nM for the first, less than 10 nM for the second. The second is the more potent here.

CC(=O)Nc1cc(-c2cnc(N)c(S(=O)(=O)Nc3ccc(F)cc3F)c2)ccn1 [Compound I-170, N-{6-amino-5-[(2,4-difluorophenyl)sulfamoyl]-3,4′-bipyridin-2′-yl}acetamide] and CCc1ncc(-c2ccnc(NC(C)=O)c2)cc1NS(=O)(=O)c1ccc(F)cc1F [Compound I-201, N-(5-{[(2,4-difluorophenyl)sulfonyl]amino}-6-ethyl-3,4′-bipyridin-2′-yl)acetamide] cannot be ordered by IC50: less than 10 nM for the first, less than 10 nM for the second.

CC(=O)Nc1cc(-c2cnc(N)c(S(=O)(=O)Cc3ccccc3Cl)c2)ccn1 [Compound I-172, N-{6-amino-5-[(chlorobenzyl)sulfonyl]-3,4′-bipyridin-2′-yl}acetamide] and CC(=O)Nc1cc(-c2cnc(N)c(S(=O)(=O)Cc3ccccc3F)c2)ccn1 [Compound I-197, N-{6-amino-5-[(2-fluorobenzyl)sulfonyl]-3,4′-bipyridin-2′-yl]acetamide] fall in the same range of IC50: 10 to 50 nM for the first, 10 to 50 nM for the second.

Compared with CNc1ncc(-c2ccnc(NC(C)=O)c2)cc1S(=O)(=O)N(C(C)C)C(C)C [Compound I-173, N-[5-(diisopropylsulfamoyl)-6-(methylamino)-3,4′-bipyridin-2′-yl]acetamide], CC(=O)Nc1cc(-c2cnc(N)c(S(=O)(=O)C(C)C)c2)ccn1 [Compound I-175, N-[6-amino-5-(isopropylsulfonyl)-3,4′-bipyridin-2′-yl]acetamide] is higher in IC50: less than 10 nM for the first, 10 to 50 nM for the second.

CC(=O)Nc1cc(-c2cnc(N(C)C)c(C(=O)N(C)c3ccc(F)cc3F)c2)ccn1 [Compound I-174, 2′-Acetamido-N-(2,4-difluorophenyl)-6-(dimethylamino)-N-methyl-[3,4′-bipyridine]-5-carboxamide] and CC(=O)Nc1cc(-c2cnc(N)c(C(=O)Nc3cccc(F)c3F)c2)ccn1 [Compound I-179, 2′-acetamido-6-amino-N-(2,3-difluorophenyl)-3,4′-bipyridine-5-carboxamide] cannot be ordered by IC50: less than 10 nM for the first, less than 10 nM for the second.

First: CC(=O)Nc1cc(-c2cnc3[nH]cc(S(=O)(=O)c4ccccc4)c3c2)ccn1 [Compound I-176, N-{4-[3-(phenylsulfonyl)-1H-pyrrolo[2,3-b]pyridin-5-yl]pyridin-2-yl}acetamide]
Second: CC(=O)Nc1cc(-c2cnc(N)c(S(=O)(=O)Nc3ccc(Cl)cc3)c2)ccn1 [Compound I-207, N-{6-amino-5-[(4-chlorophenyl)sulfamoyl]-3,4′-bipyridin-2′-yl}acetamide]
The IC50 of the first is higher: 10 to 50 nM for the first, less than 10 nM for the second.

First: CC(=O)Nc1cc(-c2cnc(C)c(NS(=O)(=O)c3ccc(F)cc3F)c2)c(C)cn1 [Compound I-177, N-(5-{[(2,4-difluorophenyl)sulfonyl]amino}-5′,6-dimethyl-3,4′-bipyridin-2′-yl)acetamide]
Second: CC(=O)Nc1cc(-c2cnc(C)c(NS(=O)(=O)c3ccc(C)cc3F)c2)ccn1 [Compound I-182, N-(5-{[(2-fluoro-4-methylphenyl)sulfonyl]amino}-6-methyl-3,4′-bipyridin-2′-yl)acetamide]
The IC50 of the first is higher: 10 to 50 nM for the first, less than 10 nM for the second. The second is the more potent here.

CC(=O)Nc1cc(-c2cnc(C)c(NS(=O)(=O)c3cc(C)ccc3C)c2)ccn1 [Compound I-178, N-(5-{[(2,5-dimethylphenyl)sulfonyl]amino}-6-methyl-3,4′-bipyridin-2′-yl)acetamide] and CC(=O)Nc1cc(-c2cnc(C)c(NS(=O)(=O)c3ccc(F)cc3Cl)c2)ccn1 [Compound I-206, N-(5-{[(2-chloro-4-fluorophenyl)sulfonyl]amino}-6-methyl-3,4′-bipyridin-2′-yl)acetamide] cannot be ordered by IC50: less than 10 nM for the first, less than 10 nM for the second.

First: COC(=O)Nc1cc(-c2cncc(C(=O)C3CC3)c2)ccn1 [Compound I-180]
Second: CC(=O)Nc1cc(-c2cncc(C(C)=O)c2)ccn1 [Compound I-194, N-(5-acetyl-3,4′-bipyridin-2′-yl)acetamide]
The IC50 of the first is lower: 50 to 100 nM for the first, greater than 100 nM for the second.

First: CC(=O)Nc1cc(-c2cnc(N)c(N3CCCS3(=O)=O)c2)ccn1 [Compound I-181, N-[6-amino-5-(1,1-dioxidoisothiazolidin-2-yl)-3,4′-bipyridin-2′-yl]acetamide]
Second: CC(=O)Nc1cc(-c2cncc(N3CCCS3(=O)=O)c2)ccn1 [Compound I-192, N-[5-(1,1-dioxidoisothiazolidin-2-yl)-3,4′-bipyridin-2′-yl]acetamide]
The IC50 of the first is lower: less than 10 nM for the first, 50 to 100 nM for the second.

CC(=O)Nc1cc(-c2cnc(N)c(S(=O)(=O)NCC3CCCCC3)c2)ccn1 [Compound I-183, N-{6-amino-5-[(cyclohexylmethyl)sulfamoyl]-3,4′-bipyridin-2′-yl}acetamide] and CC(=O)Nc1cc(-c2cnc(N)c(S(=O)(=O)Nc3cccnc3)c2)ccn1 [Compound I-204, N-[6-amino-5-(pyridin-3-ylsulfamoyl)-3,4′-bipyridin-2′-yl]acetamide] cannot be ordered by IC50: less than 10 nM for the first, less than 10 nM for the second.

First: CC(=O)Nc1cc(-c2cncc(C=O)c2)ccn1 [Compound I-184, N-(5-formyl-3,4′-bipyridin-2′-yl)acetamide]
Second: CC(=O)Nc1cc(-c2cnc3[nH]ncc3c2)ccn1 [Compound I-189, N-[4-(1H-pyrazolo[3,4-b]pyridin-5-yl)pyridin-2-yl]acetamide]
The IC50 of the first is higher: greater than 100 nM for the first, 50 to 100 nM for the second.

CC(=O)Nc1cc(-c2cnc(N)c(S(=O)(=O)N(C)C)c2)c(F)cn1 [Compound I-186] and CC(=O)Nc1cc(-c2cnc(N)c(S(=O)(=O)Cc3cccnc3)c2)ccn1 [Compound I-205, N-{6-amino-5-[(pyridin-3-ylmethyl)sulfonyl]-3,4′-bipyridin-2′-yl}acetamide] fall in the same range of IC50: 10 to 50 nM for the first, 10 to 50 nM for the second.

First: CC(=O)Nc1cc(-c2cncc(/C=C/C(=O)c3ccc(F)cc3)c2)ccn1 [Compound I-188, N-{5-[(1E)-3-(4-fluorophenyl)-3-oxoprop-1-en-1-yl]-3,4′-bipyridin-2′-yl}acetamide]
Second: CC(=O)Nc1cc(-c2cncc(C(=O)/C=C/c3ccc(F)cc3)c2)ccn1 [Compound I-198, N-[5-[(2E)-3-(4-fluorophenyl)prop-2-enoyl]-3,4′-bipyridin-2′-yl}acetamide]
The IC50 of the first is lower: 50 to 100 nM for the first, greater than 100 nM for the second. The first is the more potent here.

First: CC(=O)Nc1cc(-c2cncc(S(=O)(=O)NC34CC(C3)C4)c2)ccn1 [Compound I-190, N-[5-(bicyclo[1.1.1]pent-1-ylsulfamoyl)-3,4′-bipyridin-2′-yl]acetamide]
Second: CC(=O)Nc1cc(-c2cncc(N(CC3CC3)S(C)(=O)=O)c2)ccn1 [Compound I-202, N-{5-[(cyclopropylmethyl)(methylsulfonyl)amino]-3,4′-bipyridin-2′-yl}acetamide]
The IC50 of the first is lower: 10 to 50 nM for the first, 50 to 100 nM for the second. The first is the more potent here.

First: CC(=O)Nc1cc(-c2cc(S(C)(=O)=O)c[n+]([O-])c2)ccn1 [Compound I-191, N-{4-[5-(methylsulfonyl)-1-oxidopyridin-3-yl]pyridin-2-yl}acetamide]
Second: CC(=O)Nc1cc(-c2cnc(C)c(NS(=O)(=O)c3ccsc3)c2)ccn1 [Compound I-203, N-{6-methyl-5-[(3-thienylsulfonyl)amino]-3,4′-bipyridin-2′-yl}acetamide]
The IC50 of the first is higher: greater than 100 nM for the first, less than 10 nM for the second. The second is the more potent here.

COC(=O)Nc1cc(-c2cnc(C)c(NS(=O)(=O)c3ccc(F)cc3F)c2)ccn1 [Compound I-195, methyl (5-{[(2,4-difluorophenyl)sulfonyl]amino}-6-methyl-3,4′-bipyridin-2′-yl)carbamate] and CC(=O)Nc1cc(-c2cnc3ccn(S(=O)(=O)C4CC4)c3c2)ccn1 [Compound I-199, N-{4-[1-(cyclopropylsulfonyl)-1H-pyrrolo[3,2-b]pyridin-6-yl]pyridin-2-yl}acetamide] cannot be ordered by IC50: less than 10 nM for the first, less than 10 nM for the second.

CC(=O)Nc1cc(-c2cnc(N)c(C(=O)N3CCC3)c2)ccn1 [Compound I-200, N-[6-amino-5-(azetidin-1-ylcarbonyl)-3,4′-bipyridin-2′-yl]acetamide] gave an IC50 of less than 10 nM.
